Assay results published in patent US20050209278A1, “Piperidinyl- and piperazinyl-sulfonylmethyl hydroxamic acids and their use as protease inhibitors” (priority 2002, published 2005).

The molecules below were run against T1, MMP-1 (Homo sapiens, UniProt P03956) (assay: In vitro MMP inhibition, Ki determination (fluorogenic substrate II)). Settings: value outside parentheses; read-out: MMP-1 Ki.
T1 construct: made in house; host or cells: MMP-1-transfected HT-1080 cells (spent media)
T1 sequence (P03956 100-469): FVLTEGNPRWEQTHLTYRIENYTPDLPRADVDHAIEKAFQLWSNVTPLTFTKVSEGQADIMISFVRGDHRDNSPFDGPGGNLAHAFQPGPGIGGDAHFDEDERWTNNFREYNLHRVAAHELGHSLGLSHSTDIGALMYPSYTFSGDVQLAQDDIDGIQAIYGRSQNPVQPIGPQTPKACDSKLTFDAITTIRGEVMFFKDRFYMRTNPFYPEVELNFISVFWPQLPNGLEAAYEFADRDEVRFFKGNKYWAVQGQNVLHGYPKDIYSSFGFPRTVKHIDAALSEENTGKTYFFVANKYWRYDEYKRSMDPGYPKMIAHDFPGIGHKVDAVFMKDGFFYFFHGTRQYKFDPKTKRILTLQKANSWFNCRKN
Format: biochemical

Row | Ki | Compound
1 | 3.65 µM | CCCCCC/C=C/C1CCN(S(=O)(=O)C2(C(=O)NO)CCOCC2)CC1 [Example 402]
2 | 9.01 µM | CCCCCCCOC1CCN(S(=O)(=O)C2(C(=O)NO)CCOCC2)CC1 [Example 406]
3 | > 10 µM | CCCCCC/C=C\C1CCN(S(=O)(=O)C2(C(=O)NO)CCOCC2)CC1 [Example 401]
4 | 8.32 µM | O=C(NO)C1(S(=O)(=O)N2CCC(COCc3ccc(SC(F)(F)F)cc3)CC2)CCOCC1 [Example 405]
5 | > 10 µM | O=C(NO)C1(S(=O)(=O)N2CCC(COCc3ccc(C(F)(F)F)cc3)CC2)CCOCC1 [Example 403]
6 | 3.32 µM | CCCC#Cc1cnc(N2CCN(S(=O)(=O)C3(C(=O)NO)CCOCC3)CC2)s1 [Example 400]
7 | 1.95 µM | O=C(NO)C1(S(=O)(=O)N2CCC(c3ccc(OCc4ccccc4)cn3)CC2)CCOCC1 [Example 398]
8 | > 10 µM | CCCCc1ccc(C2(O)CCN(S(=O)(=O)C3(C(=O)NO)CCOCC3)CC2)nc1 [Example 420]
9 | > 10 µM | O=C(NO)C1(S(=O)(=O)N2CCC(COCc3ccc(OC(F)(F)F)cc3)CC2)CCOCC1 [Example 404]
10 | > 10 µM | O=C(NO)C1(S(=O)(=O)N2CCN(c3nc(-c4ccccc4)cs3)CC2)CCOCC1 [Example 415]
11 | 1.83 µM | O=C(NO)C1(S(=O)(=O)N2CCC(c3ccc(-c4cccc(F)c4)cn3)CC2)CCOCC1 [Example 417]
12 | > 10 µM | CCC(F)(F)CCc1ccc(C2CCN(S(=O)(=O)C3(C(=O)NO)CCOCC3)CC2)cn1 [Example 411]
13 | > 10 µM | O=C(NO)C1(S(=O)(=O)N2CCC(c3ccc(-c4ccccn4)cn3)CC2)CCOCC1 [Example 409]
14 | > 10 µM | Cc1cccc(-c2csc(N3CCN(S(=O)(=O)C4(C(=O)NO)CCOCC4)CC3)n2)c1 [Example 413]
15 | 6.42 µM | Cc1ccc(-c2ccc(C3CCN(S(=O)(=O)C4(C(=O)NO)CCOCC4)CC3)nc2)s1 [Example 416]
16 | > 10 µM | Cc1ccc(-c2csc(N3CCN(S(=O)(=O)C4(C(=O)NO)CCOCC4)CC3)n2)cc1 [Example 412]
17 | > 10 µM | O=C(NO)C1(S(=O)(=O)N2CCN(c3ccc(-c4nn[nH]n4)cc3)CC2)CCOCC1 [Example 419]
18 | 3.08 µM | O=C(NO)C1(S(=O)(=O)N2CCC(c3ccc(OCCC(F)(F)F)cn3)CC2)CCOCC1 [Example 418]
19 | > 10 µM | O=C(NO)C1(S(=O)(=O)N2CCC(c3ccc(N4CCCC4)cn3)CC2)CCOCC1 [Example 408]
20 | > 10 µM | CCCCc1ccc(C2CCN(S(=O)(=O)C3(C(=O)NO)CCN(CCOC)CC3)CC2)nc1 [Example 397]
21 | 3.49 µM | CCCCOc1ccc(C2CCN(S(=O)(=O)C3(C(=O)NO)CCOCC3)CC2)nc1 [Example 410]
22 | > 10 µM | O=C(NO)C1(S(=O)(=O)N2CCC(c3ccc(-c4cccs4)c(F)c3)CC2)CCOCC1 [Example 407]

The molecules below were run against T2, MMP-13 (Homo sapiens, UniProt P45452) (assay: In vitro MMP inhibition, IC50 determination (fluorogenic substrate I)). Settings: value in parentheses; read-out: MMP-13 (IC-50).
T2 construct: made in house; host or cells: baculovirus / insect cells
Format: biochemical

Row | IC50 | Compound
23 | 0.00035 µM | CCCCOc1ccc(N2CCN(S(=O)(=O)C3(C(=O)NO)CCN(C(=O)CCC)CC3)CC2)cc1 [Example 290]

Same assay, conditions: value in parenthesis; read-out: MMP-13 (IC-50)

Row | IC50 | Compound
24 | 0.00121 µM | COCCCc1ccc(N2CCN(S(=O)(=O)C3(C(=O)NO)CCN(CCOC)CC3)CC2)cc1 [Example 180]
25 | 0.00163 µM | CCCOc1ccc(N2CCN(S(=O)(=O)C3(C(=O)NO)CCN(CCOC)CC3)CC2)cc1F [Example 185]
26 | 0.00276 µM | COCCN1CCC(C(=O)NO)(S(=O)(=O)N2CCN(c3ccc(CC4CCC4)cc3)CC2)CC1 [Example 183]
27 | 0.018 µM | COCCN1CCC(C(=O)NO)(S(=O)(=O)N2CCN(c3ccc(CC4CCCCC4)cc3)CC2)CC1 [Example 181]
28 | 0.00053 µM | CCOCCCc1ccc(N2CCN(S(=O)(=O)C3(C(=O)NO)CCN(CCOC)CC3)CC2)cc1 [Example 179]
29 | 0.00263 µM | COCCN1CCC(C(=O)NO)(S(=O)(=O)N2CCN(c3ccc(C#N)cc3)CC2)CC1 [Example 186]
30 | 0.00014 µM | COCCN1CCC(C(=O)NO)(S(=O)(=O)N2CCN(c3ccc(CCC4CCCC4)cc3)CC2)CC1 [Example 182]
31 | 0.00226 µM | CCOc1ccc(N2CCN(S(=O)(=O)C3(C(=O)NO)CCN(CCOC)CC3)CC2)cc1F [Example 184]
32 | 0.00401 µM | CCC(CC)Cc1ccc(N2CCN(S(=O)(=O)C3(C(=O)NO)CCN(CCOC)CC3)CC2)cc1 [Example 188]
33 | 0.0473 µM | CCc1cnc(N2CCN(S(=O)(=O)C3(C(=O)NO)CCN(CCOC)CC3)CC2)nc1 [Example 187]
